Test results from PMC10539439 (Pharmacological Reports, 2023).
Values joined by “and” are separate entries in the source; they are usually repeats but may differ in a detail not shown here. Equal values may be shown once. Read-outs that look alike come from different tables or passages of the source.

Assays:
α1-adrenoceptor = experiment: Competitive radioligand-binding assay, [3H]prazosin; design: species or system rat
Procedure: (§1) 10 mM stock solutions of test compounds were prepared in DMSO. Serial dilutions of compounds were prepared in 96-well microplate in assay buffers using an automated pipetting system epMotion 5070 (Eppendorf, Poland). Each compound was tested in 6 concentrations of 1.0E-05 to 1.0E-10 M (final concentration).
(§2) Affinity towards α1- and α2-adrenoceptors was evaluated using the competitive radioligand-binding assay. Experiments were conducted in the rat cerebral cortex. Radioligand [3H]prazosin (84,2 Ci/mmol, α1-adrenoceptor, PerkinElmer, Poland, NET823001MC) and [3H]clonidine (70.5 Ci/mmol, α2-adrenoceptor, PerkinElmer, Poland, NET613250UC) were used. The membrane preparation and the assay procedure were carried out accordingly as previously published. Radioactivity was counted on the MicroBeta2 scintillation counter (PerkinElmer, Poland). Data were fitted to a one-site curve-fitting equation with Prism 8 (GraphPad Software, USA), and Ki values were estimated from the Cheng–Prusoff equation.

α2-adrenoceptor = biological target: T1, α2-adrenoceptor (Rattus norvegicus, UniProt P22909); experiment: Competitive radioligand-binding assay, [3H]clonidine; conditions: ADRA2, experiments 1-3, duplicates
T1 sequence (P22909 1-465): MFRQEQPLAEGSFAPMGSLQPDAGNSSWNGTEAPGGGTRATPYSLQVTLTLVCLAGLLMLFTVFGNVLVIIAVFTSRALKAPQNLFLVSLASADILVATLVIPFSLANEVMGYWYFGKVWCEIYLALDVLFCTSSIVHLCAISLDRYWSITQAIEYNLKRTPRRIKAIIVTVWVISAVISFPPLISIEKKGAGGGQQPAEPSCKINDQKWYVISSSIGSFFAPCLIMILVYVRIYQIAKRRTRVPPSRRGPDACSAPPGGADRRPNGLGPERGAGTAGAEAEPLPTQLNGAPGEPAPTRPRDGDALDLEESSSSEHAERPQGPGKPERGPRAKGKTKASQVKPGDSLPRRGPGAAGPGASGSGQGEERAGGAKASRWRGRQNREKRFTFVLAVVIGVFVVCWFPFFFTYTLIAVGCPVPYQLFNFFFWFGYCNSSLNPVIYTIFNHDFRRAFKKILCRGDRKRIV
Procedure: as §1, §2

α2A-adrenoceptor = biological target: T2, α2A-adrenoceptor (Homo sapiens, UniProt P08913); experiment: Intrinsic activity, Tango beta-lactamase reporter assay; type: cell-based; conditions: ADRAA2A
T2 sequence (P08913 1-465): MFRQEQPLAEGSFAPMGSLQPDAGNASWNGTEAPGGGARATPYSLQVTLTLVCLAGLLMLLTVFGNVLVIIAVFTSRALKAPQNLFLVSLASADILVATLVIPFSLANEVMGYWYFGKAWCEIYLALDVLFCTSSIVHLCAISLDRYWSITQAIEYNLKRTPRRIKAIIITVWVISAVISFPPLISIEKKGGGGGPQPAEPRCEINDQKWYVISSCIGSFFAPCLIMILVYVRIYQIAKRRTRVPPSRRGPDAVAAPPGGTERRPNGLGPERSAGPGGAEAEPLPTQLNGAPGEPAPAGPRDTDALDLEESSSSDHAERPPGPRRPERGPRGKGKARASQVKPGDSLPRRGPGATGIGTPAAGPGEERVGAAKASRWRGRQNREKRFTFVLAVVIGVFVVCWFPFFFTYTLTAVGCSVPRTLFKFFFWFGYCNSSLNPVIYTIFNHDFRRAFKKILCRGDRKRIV
Procedure: The intrinsic activity at α2A-adrenoceptor was assessed by the Tango assay technology that uses a mammalian-optimized beta-lactamase (bla) reporter gene combined with an FRET-enabled substrate to provide reliable and sensitive detection in cells. Cells are loaded with an engineered fluorescent substrate containing two fluorophores, coumarin, and fluorescein. In the absence of bla expression, the substrate molecule remains intact. In this state, excitation of the coumarin results in a transfer of fluorescence resonance energy to the fluorescein moiety and emission of green fluorescent light. However, in the presence of bla expression, the substrate is cleaved, separating the fluorophores and disrupting energy transfer. Excitation of the coumarin in the presence of bla enzyme activity results in a blue fluorescence signal.
Intrinsic activity assay was performed according to the manufacturer of the assay kit (Invitrogen, Life Technologies). Cells were harvested and resuspended in an assay medium at a density of 312,500 cells/ml. 32 μL per well of cell suspension was added to the test compound wells, the unstimulated control wells, and the stimulated control wells, and incubated for 16–24 h. To perform an agonist assay, 8 μL of 5 × of agonist in the assay medium was added to the cells. […] Then, the agonist and antagonist plates were incubated in a humidified incubator at 37 °C/5% CO2 for 5 h. After the incubation, 8 μL of LiveBLAzer™-FRET B/G substrate mixture (CCF4-AM) was loaded into cells in the absence of direct strong lighting, covered, and incubated at room temperature for 2 h.

Q: What does the source list for `Cc1ccc(N(CC2=NCCN2)c2cccc(O)c2)cc1` [Phentolamine]?
A: Ki (α1-adrenoceptor; ADRA1, experiment 1, 2, 3, read-out: Ki, single experiments): 14.9 nM and 9.23 nM and 10.1 nM; Ki (α1-adrenoceptor; [3H] prazosin, rat cerebral cortex, mean ± SEM, n = 3, read-out: Ki): 11.3 ± 1.7 nM

Q: `CNC[C@H](O)c1cccc(O)c1` [Phenylephrine] was tested. Which CPM (α2-adrenoceptor; log of molar concentration -5) did it give?
A: Its CPM is 141 CPM and 116 CPM and 96 CPM and 109 CPM and 123 CPM and 92 CPM.

Q: What about the CPM (α2-adrenoceptor; log of molar concentration -6) of the same compound?
A: Its CPM is 126 CPM and 136 CPM and 132 CPM and 152 CPM and 190 CPM and 224 CPM.

Q: And the CPM (α2-adrenoceptor; log of molar concentration -7)?
A: The CPM was 392 CPM and 260 CPM and 300 CPM and 297 CPM and 293 CPM.

Q: And the CPM (α2-adrenoceptor; log of molar concentration -8)?
A: The CPM was 433 CPM and 441 CPM and 410 CPM and 390 CPM and 339 CPM and 367 CPM.

Q: And the CPM (α2-adrenoceptor; log of molar concentration -9)?
A: The CPM was 380 CPM and 398 CPM and 394 CPM and 410 CPM and 367 CPM and 391 CPM.

Q: And the CPM (α2-adrenoceptor; log of molar concentration -10)?
A: The CPM was 502 CPM and 429 CPM and 290 CPM and 400 CPM and 415 CPM and 423 CPM.

Q: Which results are given for `COC(=O)[C@@H]1[C@H]2C[C@H]3c4[nH]c5ccccc5c4CCN3C[C@@H]2CC[C@@H]1O` [Yohimbine]?
A: % of max response (α2A-adrenoceptor; antagonist vs brimonidine EC80, concentration 1e-11): 99.193% and 99.631%; % of max response (α2A-adrenoceptor; antagonist vs brimonidine EC80, concentration 1e-10): 89.6162%; % of max response (α2A-adrenoceptor; antagonist vs brimonidine EC80, concentration 1e-9): 70.6442% and 68.4607%; % of max response (α2A-adrenoceptor; antagonist vs brimonidine EC80, concentration 1e-8): 17.048% and 15.1589%; % of max response (α2A-adrenoceptor; antagonist vs brimonidine EC80, concentration 1e-7): 6.64%; % of max response (α2A-adrenoceptor; antagonist vs brimonidine EC80, concentration 1e-6): 8.3079%

Q: For `Brc1c(NC2=NCCN2)ccc2nccnc12` [brimonidine], which “% of max response” value (α2A-adrenoceptor; agonist, concentration 1e-11) is on record?
A: The value was -0.4968% and 2.419% and -2.234% and 0.961%.

Q: What about the “% of max response” value (α2A-adrenoceptor; agonist, concentration 1e-10) of the same compound?
A: The value was 2.567% and 0.2495% and -1.378% and 1.408%.

Q: What about the “% of max response” value (α2A-adrenoceptor; agonist, concentration 1e-9) of the same compound?
A: The value was 4.21% and 2.461% and -0.5064% and 3.335%.

Q: What about the “% of max response” value (α2A-adrenoceptor; agonist, concentration 1e-8) of the same compound?
A: The value was 48.0757% and 59.1796% and 30.9499% and 53.6276%.

Q: What about the “% of max response” value (α2A-adrenoceptor; agonist, concentration 1e-7) of the same compound?
A: Its value is 88.9964% and 81.4266%.
